From patent US8778617B2, “Method for determining the binding constant of high affinity compounds” (Hoffmann-La Roche Inc., priority 2010, dated 2014)

Legend:
[1] = Equilibrium dialysis, binding to PVP 15; conditions: PVP 15 40 g/l; drugs 0.02-0.6 mM
Method: (§1) A reusable 96-well Micro-Equilibrium dialysis Device 96 chamber was used for the following experiments. The chamber system consists of 10 Teflon™ bars, wherein semipermeable membranes (see 1.2 Membranes) were placed between two Teflon™ bars each to form two compartment of each well.
(§2) 2) The protein chamber (chamber 2) is filled with buffer and the other excipients to the final volume of approximately 100-150 ul. It is important that on each side the volume is exactly the same.
(§3) with PVP and PVP in combination with cyclodextrines as sink compound in chamber the volume was 100 μl. (PVP 15 4% (m/V), PVP 25 4% (m/V), PVP 25 4% (m/V)+β-Hydroxypropyl-cyclodextrin 4% (m/V))
(§4) 5) The chamber system was shaken for 1 hour, then incubated over night (approximately 12 hours). Long duration shaking should be avoided due to the risk of higher evaporation caused by the generated heat.
(§5) 6) After reaching the equilibrium, a sample from the sink chamber (reference, binding study II with sink compound and HSA), or from the protein chamber (reference, binding study I with sink compound alone) was transferred to a half-area UV-plate and analyzed spectrometrically (spectra max, 190 Plate Reader; 250-500 nm) or it was analysed by HPLC.
(§6) Concentrations of the drugs: 0.02-0.6 mM
(§7) Amounts of PVP 15 and PVP25: each 40 g/l

[2] = Equilibrium dialysis, binding to PVP 25; conditions: PVP25 40 g/l; drugs 0.02-0.6 mM
Method: as §1, §2, §3, §4, §5, §6, §7

[3] = Equilibrium dialysis, binding to beta-hydroxypropyl-cyclodextrine as sink compound; conditions: membrane cut off 1 kDa; for Average Binding [%] to beta-hydroxypropyl-cyclodextrine: beta-hydroxypropyl-cyclodextrine 10% (m/V), test compound 0.02 mM-0.06 mM, DMSO 6% (V/V); for fb(%) excipient binding level: Warfarin 0.01 mM to 0.4 mM, UV
Method: A reusable 96-well Micro-Equilibrium dialysis Device 96 chamber was used for the following experiments. The chamber system consists of 10 Teflon™ bars, wherein semipermeable membranes (see 1.2 Membranes) were placed between two Teflon™ bars each to form two compartment of each well. 2) The protein chamber (chamber 2) is filled with buffer and the other excipients to the final volume of approximately 100-150 ul. […] 5) The chamber system was shaken for 1 hour, then incubated over night (approximately 12 hours). Long duration shaking should be avoided due to the risk of higher evaporation caused by the generated heat.

plasma protein [4] = conditions: conventional methods, literature values; cited from earlier work
[5] = target: human serum albumin (HSA) (Homo sapiens, UniProt P02768); experiment: Assay with PVP 25 (sink compound) and human serum albumin, new approach; assay type: in vitro ADME; conditions: pH 7.4, PVP 25 4.0% (m/V) as sink compound, HSA 60 mM, membrane MWCO 3.5 kDa, test compound 0.02 mM to 0.6 mM, HPLC; for fraction bound to HSA: read-out: fu (%) newApproach (binding level to HSA)
Method: as §2
End concentration of HSA: 60 mM
as §4, §5
The distribution coefficient and the binding constant can be calculated with binding studies. The binding of drugs to HSA is a reversible process which can be described by the following equilibrium [Du]+[HSA]·[D·HSA]
The binding constant KHSA can be converted to the fraction unbound fu with the following formula derived from the law of mass:
The binding constant to HSA (KHSA) (2) can be calculated from the combination of partition coefficients to PVP (DCPVP) (3) and to HSA in the presence of PVP (DCHSA′) (3). KHSA=DCPVP·DCHSA′ (2)
Vtotal is total volume in the dialysis chamber (200 μl) and VHSA and VPVP are the volumes of HSA and PVP 25, which can be calculated from the density and the weighted sample
Analytics was carried out on an HPLC-system (Agilent 1100). The separations were performed on a RP column (Chromolith flash, RP18e, 4.6×25 mm). Samples were eluted with gradient of water with 0.05% formic acid (A) and Acetonitril (B).

plasma protein [6] = experiment: Protein binding determined with conventional methods (literature values / inhouse); assay type: in vitro ADME; conditions: read-out: fu (%) Literature (binding level)
Source text: The determined binding levels of the test compound in example 6 (“new approach”) were compared with the values determined with conventional methods (literature values).

[7] = Equilibrium dialysis, binding to combination of PVP25 and beta-hydroxypropyl-cyclodextrin as sink compound; conditions: PVP 25 4% (m/V) + β-Hydroxypropyl-cyclodextrin 4% (m/V); membrane cut off 1 kDa; test compound 0.02 mM to 0.6 mM
Method: as §1, §2, §3, §4, §5

[8] = Equilibrium dialysis, excipient binding to gamma-cyclodextrin; conditions: γ-Cyclodextrin 2.5% (m/V); membrane cut off 1 kDa; Warfarin 0.01 mM to 0.4 mM; UV
Method: as §1, §2, §4, §5

Sequence of human serum albumin (HSA) (P02768 25-609): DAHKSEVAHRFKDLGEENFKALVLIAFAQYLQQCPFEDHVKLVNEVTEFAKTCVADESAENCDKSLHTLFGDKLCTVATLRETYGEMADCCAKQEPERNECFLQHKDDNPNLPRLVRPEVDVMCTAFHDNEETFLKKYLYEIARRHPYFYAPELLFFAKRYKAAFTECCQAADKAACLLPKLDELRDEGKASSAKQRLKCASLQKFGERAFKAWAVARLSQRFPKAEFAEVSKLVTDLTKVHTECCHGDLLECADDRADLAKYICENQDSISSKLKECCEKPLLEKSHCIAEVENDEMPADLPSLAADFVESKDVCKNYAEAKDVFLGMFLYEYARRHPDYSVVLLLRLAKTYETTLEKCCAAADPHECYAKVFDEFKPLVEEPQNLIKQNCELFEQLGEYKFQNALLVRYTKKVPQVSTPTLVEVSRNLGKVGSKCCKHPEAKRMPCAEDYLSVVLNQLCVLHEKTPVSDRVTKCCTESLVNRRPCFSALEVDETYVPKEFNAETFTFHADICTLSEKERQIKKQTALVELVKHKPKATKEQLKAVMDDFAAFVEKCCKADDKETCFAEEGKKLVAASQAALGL

SMILES: NS(=O)(=O)c1cc(C(=O)O)c(NCc2ccco2)cc1Cl [Furosemid, 4-chloro-2-(furan-2-ylmethylamino)-5-sulfamoylbenzoic acid]
- Average binding [%] to PVP15 [1]: 37.0%
- Average binding [%] to PVP25 [2]: 49.4%

SMILES: C=C[C@H]1C[N@@]2CC[C@H]1C[C@H]2[C@H](O)c1ccnc2ccc(OC)cc12 [Quinine]
- Average Binding [%] to beta-hydroxypropyl-cyclodextrine [3]: 21.6%

SMILES: O=C(O)Cc1ccccc1Nc1c(Cl)cccc1Cl [Diclofenac, 2-(2-(2,6-dichlorophenylamino)phenyl)acetic acid]
- Average Binding [%] to beta-hydroxypropyl-cyclodextrine [3]: 23.1%
- Average binding [%] to PVP15 [1]: 21.7%
- Average binding [%] to PVP25 [2]: 46.4%

SMILES: NC(=O)N1c2ccccc2C=Cc2ccccc21 [Carbamazepin]
- Average Binding [%] to beta-hydroxypropyl-cyclodextrine [3]: 31.3%

SMILES: CN1/C(=C(/O)Nc2ccccn2)C(=O)c2ccccc2S1(=O)=O [Piroxicame, (8E)-8-[hydroxy-(pyridin-2-ylamino)methylidene]-9-methyl-10,10-dioxo-10λ6-thia-9-azabicyclo[4.4.0]deca-1,3,5-trien-7-one]
- fu (%) Literature (binding level) (plasma protein [4]): 99.0%
- fraction bound [5]: 99.6%

SMILES: COc1ccc(Cl)cc1C(=O)NCCc1ccc(S(=O)(=O)NC(=O)NC2CCCCC2)cc1 [Glibenclamid, 5-chloro-N-(4-[N-(cyclohexylcarbamoyl)sulfamoyl]phenethyl)-2-methoxybenzamide]
- fraction bound to HSA [5]: 1
- fraction bound (plasma protein [6]): 0.997

SMILES: CC(=O)CC(c1ccccc1)c1c(O)c2ccccc2oc1=O (racemic) [Warfarin, (RS)-4-hydroxy-3-(3-oxo-1-phenylbutyl)-2H-chromen-2-one]
- fb(%) excipient binding level [7]: 27.9%
- fb(%) excipient binding level ([3]; β-Hydroxypropyl-cyclodextrin 1% (m/V)): 6.8%
- fb(%) excipient binding level ([3]; β-Hydroxypropyl-cyclodextrin 10% (m/V)): 27.6%
- fb(%) excipient binding level [8]: 6.0%

SMILES: CN(C)CCCN1c2ccccc2Sc2ccc(Cl)cc21 [Chlorpromazine, 3-(2-chloro-10H-phenothiazin-10-yl)-N,N-dimethyl-propan-1-amine]
- fu (%) Literature (binding level) (plasma protein [4]): 97.80%
- fraction bound to HSA [5]: 0.994

SMILES: CO/N=C(\C(=O)N[C@@H]1C(=O)N2C(C(=O)O)=C(CSc3nc(=O)c(=O)[nH]n3C)CS[C@H]12)c1csc(N)n1 [Ceftriaxone]
- Average Binding [%] to beta-hydroxypropyl-cyclodextrine [3]: 14.2%
